Results as given in the supplement of paper PMC10132981, “Formate overflow drives toxic folate trapping in MTHFD1 inhibited cancer cells” (Nature Metabolism, 2023).
± gives the standard deviation of the averaged measurements.

Experiments:
[1] = system: SW620; assay: cell viability relative to lowest-dose well (resazurin, 96 h); higher = more viable; settings: RPMI + 10% FBS
Procedure, shortened: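 Compounds from 10 mM DMSO stocks were dispensed as dilution series onto HCT116 (500 cells/well) or SW620 (1,000 cells/well) cells growing in 384-well plates in 50 µl RPMI, 10% FBS and a metabolite supplement. Plates were incubated 96 h at 37 °C, 5% CO2, then resazurin (10 µg ml^−1) was added and its conversion to resorufin read by fluorescence at 595 nm after 5 h. Viability is shown as percent of the lowest-dose well for independent replicate cultures. Viability was read by resazurin-to-resorufin conversion and normalised to the lowest-dose vehicle well (=100%).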

[2] = system: SW620 MTHFD2 -/-; assay: EC50 for viability (resazurin, 96 h); settings: RPMI+GlutaMAX (5% dFBS, 1% P/S)
[3] = system: SW620 WT; assay: EC50 for viability (resazurin, 96 h); settings: RPMI+GlutaMAX (5% dFBS, 1% P/S)
[4] = system: SW620 MTHFD2-/-; assay: EC50 for viability (resazurin, 96 h); settings: RPMI+GlutaMAX (5% dFBS, 1% P/S); metabolite supplement: Hypoxanthine + Formate
[5] = system: SW620; assay: EC50 for viability (resazurin, 96 h)
[6] = metabolite supplement: Thymidine

Structure (SMILES): Cc1c(N2CCN(C)[C@@H](C)C2)ccc2c3c(c(=O)oc12)CN(C(=O)c1ccc(NS(C)(=O)=O)c(OC(F)(F)F)c1)CC3
- cell viability ([1]; 0.001 µM, metabolite supplement: 50uM thymidine + 250uM hypoxanthine): 100 ± 1.9%
- cell viability ([1]; 0.001 µM, metabolite supplement: 50uM thymidine + 1mM sodium formate): 99.4 ± 5%
- cell viability ([1]; 0.001 µM, metabolite supplement: 50uM thymidine): 99.1 ± 2.6%
- cell viability ([1]; 0.001 µM, metabolite supplement: 250uM hypoxanthine): 100 ± 3.8%
- cell viability ([1]; 0.001 µM, metabolite supplement: 1mM sodium formate): 100 ± 2.4%
- cell viability ([1]; 0.001 µM, metabolite supplement: vehicle): 97 ± 2.5%
- cell viability ([1]; 0.00301 µM, metabolite supplement: 50uM thymidine + 250uM hypoxanthine): 102.3 ± 0.31%
- cell viability ([1]; 0.00301 µM, metabolite supplement: 50uM thymidine + 1mM sodium formate): 102 ± 4.1%
- cell viability ([1]; 0.00301 µM, metabolite supplement: 50uM thymidine): 97.2 ± 3.5%
- cell viability ([1]; 0.00301 µM, metabolite supplement: 250uM hypoxanthine): 96.6 ± 5.2%
- cell viability ([1]; 0.00301 µM, metabolite supplement: 1mM sodium formate): 98.27 ± 0.76%
- cell viability ([1]; 0.00301 µM, metabolite supplement: vehicle): 97.3 ± 2.9%
- cell viability ([1]; 0.00903 µM, metabolite supplement: 50uM thymidine + 250uM hypoxanthine): 102 ± 1.4%
- cell viability ([1]; 0.00903 µM, metabolite supplement: 50uM thymidine + 1mM sodium formate): 101 ± 2.7%
- cell viability ([1]; 0.00903 µM, metabolite supplement: 50uM thymidine): 96 ± 5.5%
- cell viability ([1]; 0.00903 µM, metabolite supplement: 250uM hypoxanthine): 98.9 ± 4.9%
- cell viability ([1]; 0.00903 µM, metabolite supplement: 1mM sodium formate): 97.8 ± 2.1%
- cell viability ([1]; 0.00903 µM, metabolite supplement: vehicle): 96.4 ± 4.2%
- cell viability ([1]; 0.0271 µM, metabolite supplement: 50uM thymidine + 250uM hypoxanthine): 104 ± 1.5%
- cell viability ([1]; 0.0271 µM, metabolite supplement: 50uM thymidine + 1mM sodium formate): 102 ± 3%
- cell viability ([1]; 0.0271 µM, metabolite supplement: 50uM thymidine): 99.6 ± 3.1%
- cell viability ([1]; 0.0271 µM, metabolite supplement: 250uM hypoxanthine): 99.5 ± 4%
- cell viability ([1]; 0.0271 µM, metabolite supplement: 1mM sodium formate): 100 ± 2%
- cell viability ([1]; 0.0271 µM, metabolite supplement: vehicle): 97.6 ± 1.1%
- cell viability ([1]; 0.0816 µM, metabolite supplement: 50uM thymidine + 250uM hypoxanthine): 107 ± 1.5%
- cell viability ([1]; 0.0816 µM, metabolite supplement: 50uM thymidine + 1mM sodium formate): 105 ± 3.8%
- cell viability ([1]; 0.0816 µM, metabolite supplement: 50uM thymidine): 97.1 ± 4.2%
- cell viability ([1]; 0.0816 µM, metabolite supplement: 250uM hypoxanthine): 97.4 ± 3%
- cell viability ([1]; 0.0816 µM, metabolite supplement: 1mM sodium formate): 101 ± 0.87%
- cell viability ([1]; 0.0816 µM, metabolite supplement: vehicle): 95.4 ± 3.5%
- cell viability ([1]; 0.245 µM, metabolite supplement: 50uM thymidine + 250uM hypoxanthine): 107.8 ± 0.7%
- cell viability ([1]; 0.245 µM, metabolite supplement: 50uM thymidine + 1mM sodium formate): 104 ± 2.2%
- cell viability ([1]; 0.245 µM, metabolite supplement: 50uM thymidine): 85.4 ± 0.99%
- cell viability ([1]; 0.245 µM, metabolite supplement: 250uM hypoxanthine): 99.9 ± 4%
- cell viability ([1]; 0.245 µM, metabolite supplement: 1mM sodium formate): 97.7 ± 3.2%
- cell viability ([1]; 0.245 µM, metabolite supplement: vehicle): 86.4 ± 2.3%
- cell viability ([1]; 0.737 µM, metabolite supplement: 50uM thymidine + 250uM hypoxanthine): 108 ± 1.3%
- cell viability ([1]; 0.737 µM, metabolite supplement: 50uM thymidine + 1mM sodium formate): 100 ± 1.2%
- cell viability ([1]; 0.737 µM, metabolite supplement: 50uM thymidine): 69.5 ± 2.1%
- cell viability ([1]; 0.737 µM, metabolite supplement: 250uM hypoxanthine): 97 ± 3.2%
- cell viability ([1]; 0.737 µM, metabolite supplement: 1mM sodium formate): 95.9 ± 4%
- cell viability ([1]; 0.737 µM, metabolite supplement: vehicle): 71.13 ± 0.45%
- cell viability ([1]; 2.21 µM, metabolite supplement: 50uM thymidine + 250uM hypoxanthine): 106 ± 2.1%
- cell viability ([1]; 2.21 µM, metabolite supplement: 50uM thymidine + 1mM sodium formate): 102 ± 4.7%
- cell viability ([1]; 2.21 µM, metabolite supplement: 50uM thymidine): 61.5 ± 3.3%
- cell viability ([1]; 2.21 µM, metabolite supplement: 250uM hypoxanthine): 84.7 ± 4.6%
- cell viability ([1]; 2.21 µM, metabolite supplement: 1mM sodium formate): 89 ± 1.1%
- cell viability ([1]; 2.21 µM, metabolite supplement: vehicle): 63.2 ± 2.9%
- cell viability ([1]; 6.65 µM, metabolite supplement: 50uM thymidine + 250uM hypoxanthine): 102 ± 2.5%
- cell viability ([1]; 6.65 µM, metabolite supplement: 50uM thymidine + 1mM sodium formate): 101 ± 6.5%
- cell viability ([1]; 6.65 µM, metabolite supplement: 50uM thymidine): 58.1 ± 3.9%
- cell viability ([1]; 6.65 µM, metabolite supplement: 250uM hypoxanthine): 66.4 ± 4.7%
- cell viability ([1]; 6.65 µM, metabolite supplement: 1mM sodium formate): 62.4 ± 5.1%
- cell viability ([1]; 6.65 µM, metabolite supplement: vehicle): 60.8 ± 5.5%
- cell viability ([1]; 20 µM, metabolite supplement: 50uM thymidine + 250uM hypoxanthine): 88.6 ± 7.4%
- cell viability ([1]; 20 µM, metabolite supplement: 50uM thymidine + 1mM sodium formate): 89.9 ± 1.1%
- cell viability ([1]; 20 µM, metabolite supplement: 50uM thymidine): 54.3 ± 3.2%
- cell viability ([1]; 20 µM, metabolite supplement: 250uM hypoxanthine): 44.2 ± 6%
- cell viability ([1]; 20 µM, metabolite supplement: 1mM sodium formate): 39.2 ± 3.1%
- cell viability ([1]; 20 µM, metabolite supplement: vehicle): 55 ± 4.3%
- EC50 for viability ([2]; metabolite supplement: Sodium Formate): > 10 µM
- EC50 for viability [2, 6]: 0.0863 ± 0.0027 µM
- EC50 for viability ([2]; metabolite supplement: Thymidine + Sodium Formate): 0.000383 µM
- EC50 for viability ([2]; metabolite supplement: Vehicle): 0.178 ± 0.35 µM
- EC50 for viability ([3]; metabolite supplement: Adenine): > 10 µM
- EC50 for viability ([3]; metabolite supplement: Adenosine): > 10 µM
- EC50 for viability ([3]; metabolite supplement: Guanosine): 2.97 µM
- EC50 for viability ([3]; metabolite supplement: Hypoxanthine): > 10 µM
- EC50 for viability [3, 6]: 1.07 µM
- EC50 for viability ([3]; metabolite supplement: Vehicle): 0.889 ± 0.11 µM
- EC50 for viability [4]: > 10 µM
- EC50 for viability ([5]; HPLM (5% dFBS, 1% P/S), metabolite supplement: Vehicle): > 10 µM
- EC50 for viability ([5]; RPMI+GlutaMAX (5% FBS, 1% P/S), metabolite supplement: Vehicle): > 10 µM
- EC50 for viability ([5]; RPMI+GlutaMAX (5% dFBS, 1% P/S), metabolite supplement: 50 µM Hypoxanthine): > 10 µM
- EC50 for viability ([5]; RPMI+GlutaMAX (5% dFBS, 1% P/S), metabolite supplement: Vehicle): 0.553 ± 0.45 µM
- EC50 for viability ([5]; RPMI+GlutaMAX (10% FBS, 1% P/S), metabolite supplement: Hypoxanthine): 7.05 µM
- EC50 for viability ([5]; RPMI+GlutaMAX (10% FBS, 1% P/S), metabolite supplement: Sodium Formate): 6.17 µM
- EC50 for viability ([5]; RPMI+GlutaMAX (10% FBS, 1% P/S), metabolite supplement: Thymidine): 0.447 µM
- EC50 for viability ([5]; RPMI+GlutaMAX (10% FBS, 1% P/S), metabolite supplement: Thymidine + Hypoxanthine): > 10 µM
- EC50 for viability ([5]; RPMI+GlutaMAX (10% FBS, 1% P/S), metabolite supplement: Thymidine + Sodium Formate): > 10 µM
